Legend:
C8166 cells [1] = test: Protective experiment: survival rate of normal cells (MTT); format: cell-based; settings: normal C8166 cells in protective experiment, three days
Experimental: 50 µl medium was added into half of the holes on the culture plate and 50 µl diluted supernatant fluid of HIV-1, in which the value of M.O.I was 0.0089, was added into the other half of the holes on the culture plate. At the same time, the blank control holes without the drug (the negative control) were set and the control culture holes with positive drug AZT (the positive control) were set too. They were put into 5% CO2 incubator under 37 °C for three days. The survival rate of cells was determined by MTT method. […] The following formulae were used to calculate the survival rate of normal cells caused by the drug and the protective rate of the drug for HIV-1-infected cells. Survival rate of normal cells(%)=OD value of the experimental hole/OD value of negative control hole□100% Protective rate of infected cells(%)=(OD value of the experimental hole−OD value of positive control hole)/(OD value of negative control hole−OD value of positive control hole)□100%

C8166 cells [2] = test: Cytotoxic effect on C8166 cells (MTT); format: cell-based; settings: three days, one value per date of experiment

`Cc1cn([C@H]2C[C@H](N=[N+]=[N-])[C@@H](CO)O2)c(=O)[nH]c1=O` [AZT] was tested, and the TC50 (C8166 cells [1]) was >50 µg/mL and the TC50 (C8166 cells [2]) was >50 µg/mL.

Reference: patent publication US20070253980A1, “New pharmaceutical composition from natural materials for regulating immunity, its preparation method and use” (priority 2006, published 2007)
